In patent US20240293563A1, “GLP-1 RECEPTOR LIGAND MOIETY CONJUGATED OLIGONUCLEOTIDES AND USES THEREOF” (priority 2017, published 2024):
Square brackets hold non-standard residues; d marks the D form. Side chains are listed from the residue outwards. Ends that are not written are not given here. 5'‑hexylamino oligonucleotide ISIS 722061 = not defined here; 5'‑hexylamino oligonucleotide ION 913192 = not defined here; Aib = CC(C)(N)C(=O)O; Mpa = O=C(O)CCS

How the values were obtained:
MALAT1 [1] = test: MALAT1 in situ hybridization in beta islet cells after i.v. GLP-1 ASO conjugates with various linkers; assay type: in vivo, mouse; details: male C57BL/6 mice; intravenous 0.6 μmol/kg/week once a week for three weeks; 72 hours after final injection
MALAT-1 = test: Dose-dependent reduction of MALAT-1 expression in LVX-GLP1R cells; assay type: cell-based, human
Protocol: HEK cells stably expressing FLAG-tagged GLP1R were generated by infecting HEK 293 cells with FLAG-tagged GLP1R containing lentivirus produced by transfection of 293T cells with pLVX-IRES-Puro (Clontech Laboratories Inc., Mountainview, CA) harboring the FLAG-GLP1R insert. Infected cells were selected with puromycin (2 μg/ml) and then analyzed for receptor expression by western blot and immunofluorescence. Cultured GLP1R cells were plated at a density of 10,000 cells per well and treated with 0.3, 1, 3, 9, 27, 82, 247, 741, 2,222, 6,667, and 20,000 nM modified oligonucleotide for approximately 24 hours. After the treatment period, total RNA was prepared using an RNeasy mini kit (Qiagen, Valencia, CA, USA) and qRT-PCR was performed using the primer probe set RTS2739 (forward sequence: […] (SEQ ID NO: 74), reverse sequence: […] (SEQ ID NO: 75), probe sequence: […] (SEQ ID NO: 76). Briefly, ˜50 ng total RNA in 5 d water was mixed with 0.3 d primer probe sets containing forward and reverse primers (10 μM of each) and fluorescently labeled probe (3 μM), 0.3 W RT enzyme mix (Qiagen), 4.4 d RNase-free water, and 10 d of 2×PCR reaction buffer in a 20 d reaction. Reverse transcription was performed at 48° C. for 10 min, 40 cycles of PCR were conducted at 94° C. for 20 s, and 60° C. for 20 s within each cycle, using StepOne Plus RT-PCR system (Applied Biosystems, Phoenix, AZ, USA). The mRNA levels were normalized to the amount of total RNA present in each reaction as determined by Ribogreen assay (Life Technologies) and normalized to the saline control (100% expression).

FOXO1 mRNA [2] = test: FOXO1 mRNA in isolated islets and liver after 6 weeks repeated administration to ob/ob mice; assay type: in vivo, mouse; details: ob/ob mice
Protocol: Pancreatic islets were isolated by collagenase digestion from pancreas collected from exsanguinated 12 to 15 weeks old female C57BL/6Crl mice. Islets were maintained in tissue culture until use. Islet were dissociated into single cells by shaking in media containing a low extracellular calcium concentration. 10 to 20 intact or dissociated islets were plated on plastic Petri Dishes and treated with 10 μM of antisense oligonucleotides for approximately 24 hrs. After the treatment period cells were harvested, RNA isolated, adjusted to total RNA content, as measured by RIBOGREEN®. MALAT1 or FOXO1 mRNA levels measured by quantitative real-time PCR. […] All data was normalized to the mRNA level of the house keeping gene (RPLP0) in the same sample, measured using a primer probe set with forward sequence […] NO: 71), reverse sequence […] NO: 72) and probe sequence […] NO: 73). Male ob/ob mice (B6.V-Lepob/OlaHsd, Harlan) were assigned to five treatment groups receiving either vehicle, 0.1 μmol/kg ISIS 776102, 0.1 μmol/kg ION 913195, 0.03 ION 913193 or 1 μmol/kg ION 913193. All animals were treated once weekly for 6 weeks. Approximately 120 hrs after last dose all animals were sacrificed, liver samples collected and pancreatic islets isolated, as described herein (Example 9), for mRNA analysis. FOXO1 mRNA levels were quantified as described herein (Example 9) and mRNA levels expressed relative to housekeeping gene in each sample (RPLP0).

FoxO1 protein [3] = test: FoxO1 protein (Western Blot) in cultured mouse primary islets of Langerhans treated with ASO; assay type: cell-based; details: Western Blot normalized to α-tubulin; islets treated for 96 hours; 1 μM
Protocol: Pancreatic islets were isolated by collagenase digestion from pancreas collected from euthanized 12 to 15 weeks old female B6.Cg-Lepob/J mice and maintained in tissue culture until use. 150 intact islets were placed in plastic Petri Dishes and treated with 1 μM of antisense oligonucleotides for 3 hrs every 24 hrs and harvested after approximately 24 hrs, 48 hrs or 96 hrs total treatment time respectively. After the treatment period, islets were harvested, and half of the islets were used to measure FOXO1 mRNA levels as described herein (Example 9). Half of the islets were homogenized in M-PER protein extraction reagent (Thermo Scientific) containing a protease inhibitor cocktail (Complete Mini and phosphoSTOP, Roche Diagnostics). The protein content of lysates were quantitated using BCA Assay Reagent (Pierce). […] For the anti-FoxO1 antibody, the secondary antibody was HRP-conjugated polyclonal goat anti-Rabbit P0448 (DAKO) and for the anti-α-tubulin antibody, the secondary antibody was HRP-conjugated polyclonal goat anti-mouse P0447 (DAKO). Enhanced chemiluminescence reagents (Pierce) were used for detection. […] Protein levels were quantified by measuring the intensity of the bands on the gel normalized to the intensity of α-tubulin, and expressed as percent of vehicle treated islets. FoxO1 protein levels were set to 100% in vehicle treated islets. […]

FOXO1 mRNA [4] = test: FOXO1 mRNA in cultured mouse primary islets of Langerhans treated with ASO; assay type: cell-based; details: for Islet FOXO1 mRNA levels relative to control (RPLP0): percent of untreated cells, 1 μM ASO 3 hrs every 24 hrs
Protocol: Pancreatic islets were isolated by collagenase digestion from pancreas collected from exsanguinated 12 to 15 weeks old female C57BL/6Crl mice. Islets were maintained in tissue culture until use. Islet were dissociated into single cells by shaking in media containing a low extracellular calcium concentration. 10 to 20 intact or dissociated islets were plated on plastic Petri Dishes and treated with 10 μM of antisense oligonucleotides for approximately 24 hrs. After the treatment period cells were harvested, RNA isolated, adjusted to total RNA content, as measured by RIBOGREEN®. MALAT1 or FOXO1 mRNA levels measured by quantitative real-time PCR. […] All data was normalized to the mRNA level of the house keeping gene (RPLP0) in the same sample, measured using a primer probe set with forward sequence […] NO: 71), reverse sequence […] NO: 72) and probe sequence […] NO: 73). Pancreatic islets were isolated by collagenase digestion from pancreas collected from euthanized 12 to 15 weeks old female B6.Cg-Lepob/J mice and maintained in tissue culture until use. 150 intact islets were placed in plastic Petri Dishes and treated with 1 μM of antisense oligonucleotides for 3 hrs every 24 hrs and harvested after approximately 24 hrs, 48 hrs or 96 hrs total treatment time respectively. After the treatment period, islets were harvested, and half of the islets were used to measure FOXO1 mRNA levels as described herein (Example 9). Half of the islets were homogenized in M-PER protein extraction reagent (Thermo Scientific) containing a protease inhibitor cocktail (Complete Mini and phosphoSTOP, Roche Diagnostics). The protein content of lysates were quantitated using BCA Assay Reagent (Pierce). […] For the anti-FoxO1 antibody, the secondary antibody was HRP-conjugated polyclonal goat anti-Rabbit P0448 (DAKO) and for the anti-α-tubulin antibody, the secondary antibody was HRP-conjugated polyclonal goat anti-mouse P0447 (DAKO). Enhanced chemiluminescence reagents (Pierce) were used for detection.

FoxO1 protein [5] = test: FoxO1 protein levels in islets isolated from ob/ob mice treated for 6 weeks; assay type: in vivo, mouse
Protocol: Pancreatic islets were isolated by collagenase digestion from pancreas collected from euthanized 12 to 15 weeks old female B6.Cg-Lepob/J mice and maintained in tissue culture until use. 150 intact islets were placed in plastic Petri Dishes and treated with 1 μM of antisense oligonucleotides for 3 hrs every 24 hrs and harvested after approximately 24 hrs, 48 hrs or 96 hrs total treatment time respectively. After the treatment period, islets were harvested, and half of the islets were used to measure FOXO1 mRNA levels as described herein (Example 9). Half of the islets were homogenized in M-PER protein extraction reagent (Thermo Scientific) containing a protease inhibitor cocktail (Complete Mini and phosphoSTOP, Roche Diagnostics). The protein content of lysates were quantitated using BCA Assay Reagent (Pierce). […] For the anti-FoxO1 antibody, the secondary antibody was HRP-conjugated polyclonal goat anti-Rabbit P0448 (DAKO) and for the anti-α-tubulin antibody, the secondary antibody was HRP-conjugated polyclonal goat anti-mouse P0447 (DAKO). Enhanced chemiluminescence reagents (Pierce) were used for detection. Male ob/ob mice (B6.V-Lepob/OlaHsd, Harlan) were assigned to five treatment groups receiving either vehicle, 0.1 μmol/kg ISIS 776102, 0.1 μmol/kg ION 913195, 0.03 ION 913193 or 1 μmol/kg ION 913193. All animals were treated once weekly for 6 weeks. Approximately 120 hrs after last dose all animals were sacrificed, liver samples collected and pancreatic islets isolated, as described herein (Example 9), for mRNA analysis. FOXO1 mRNA levels were quantified as described herein (Example 9) and mRNA levels expressed relative to housekeeping gene in each sample (RPLP0). Male ob/ob mice were assigned to five treatment groups as described herein (Example 17) Approximately 120 hrs after last dose all animals were sacrificed and pancreatic islets isolated for FoxO1 protein analysis as described herein (Example 10). Random samples were selected from each treatment group and loaded on each gel such that at least one sample from each treatment group was analysed on the same gels. FoxO1 protein levels were measured by quantifying the intensity and normalized against the α-tublin levels in the same sample. All samples within individual gels were expressed as percentage of the levels measured in islets of animals receiving ION 913195.

MALAT1 [6] = test: Effect of peptide composition and attachment point on peptide-conjugated ASO activity in LVX-GLP1R cells; assay type: cell-based, human; details: 7 doses in a 4-fold dilution series, MALAT1 RNA
[7] = 0.03 μmol/kg once weekly for 6 weeks
[8] = 0.1 μmol/kg once weekly for 6 weeks

Q: For “ION 962963 (H[Aib]EGTFTSDVSSYLEEQAAKEFIAWLVKGGPSSGAPPPSC([Mpa-5'‑hexylamino oligonucleotide ISIS 722061])-NH2; reading uncertain; also: Cys40 joined to the linker by a disulfide)”, which “MALAT1 expression in beta islet cells compared to saline control (in situ hybridization)” value (MALAT1 [1]) is on record?
A: reduced

Q: And the “dose-dependent inhibition of MALAT-1” value (MALAT-1; GLP1R HEK cells, GLP-1 complexed ASOs with or without a TCA linker versus parent)?
A: increased dose-dependent inhibition

Q: What about the IC50 (MALAT-1; approximately 24 hours, read-out: IC50 (MALAT-1 expression in GLP1R HEK cells)) of the same substance?
A: 0.35 µM

Q: With “ION 913193 (H[Aib]EGTFTSDVSSYLEEQAAKEFIAWLVKGGPSSGAPPPSC([Mpa-5'‑hexylamino oligonucleotide ION 913192])-NH2; reading uncertain; also: Cys40 joined to the linker by a disulfide)” as the substance, how does the “average FOXO1 mRNA reduction in isolated islets of Langerhans” value (FOXO1 mRNA [2]; [7]) read?
A: 42%

Q: And the “average FOXO1 mRNA reduction in isolated islets of Langerhans” value (FOXO1 mRNA [2]; [8])?
A: 72%

Q: And the “FoxO1 protein levels, percent of vehicle treated islets” value (FoxO1 protein [3])?
A: 5%

Q: And the “reduction in FOXO1 mRNA” value (FOXO1 mRNA [4]; mouse islets, 1 μM ASO, summary of Table 2)?
A: more than 70%

Q: And the “Islet FOXO1 mRNA levels relative to control (RPLP0)” value (FOXO1 mRNA [4]; 24 hours)?
A: 31%

Q: And the “Islet FOXO1 mRNA levels relative to control (RPLP0)” value (FOXO1 mRNA [4]; 48 hours)?
A: 30%

Q: And the “Islet FOXO1 mRNA levels relative to control (RPLP0)” value (FOXO1 mRNA [4]; 96 hours)?
A: 25%

Q: And the “Foxo1 protein levels reduced relative to ION 913195” value (FoxO1 protein [5]; [7])?
A: 57%

Q: What about the “Foxo1 protein levels reduced relative to animals treated with 0.1 μmol/kg ISIS 776102” value (FoxO1 protein [5]; [7]) of the same substance?
A: 64%

Q: What about the “Foxo1 protein levels reduced relative to ION 913195” value (FoxO1 protein [5]; [8]) of the same substance?
A: 81%

Q: What about the “Foxo1 protein levels reduced relative to animals treated with 0.1 μmol/kg ISIS 776102” value (FoxO1 protein [5]; [8]) of the same substance?
A: 36%

Q: For “ION 1083569 (HSEGTFTSDVSSYLEGQAAKEFIAWLVKGRX; C-terminal Z = 4-azidonorleucine, joined by a click reaction to the 5'-BCN MALAT1 oligonucleotide ION 791173; C-terminal amide)”, which IC50 (MALAT1 [6]) is on record?
A: 2.02 µM
